Laboratory results: patent US10288604B2, “Method for imaging cell using fluorescence-labeled sugar derivative having coumarin derivative bound thereto, and imaging agent” (HIROSAKI UNIVERSITY, priority 2012, dated 2019)
Entries after “also recorded” stand apart in the source; their conditions may differ.

Key:
Assay type in all cases: cell-based
[1] = tested on: tumor cell cluster composed of mouse insulinoma cells (MIN6); assay: Imaging of tumor cell cluster composed of MIN6 cells (real time laser scanning confocal microscope); conditions: MIN6 cluster day 13; for fluorescence of cells in the cancer cell cluster 8 minutes after completion of administration: mixed solution 100 μM 2-PBLG, 100 μM 2-NBDLG, 20 μM 2-TRLG
Description: A culture solution prepared by suspending MIN6 cells at a proportion of 10×10^4 cells/mL was dropped in an amount of 10 μL on a glass cover slip, then, allowed to adhere to the glass surface, and 3 mL of the culture solution was added and cultured. The half quantity of the culture solution was changed every three days.
Cryopreserved MIN6 cells (cells donated from Professor Miyazaki Junichi of Osaka University and cultured 5 to 8 passages) were subjected to culture according to an ordinary method, and cultured 7 to 9 passages which were used in experiments. The half amount of the culture solution was changed every two days.
NaCl 120.0 mM, KCl 4.75 mM, KH2 PO4 1.19 mM, MgSO4.7H2O 1.19 mM, CaCl2.2H2O 1 mM, NaHCO3 5.02 mM, D-Glucose 5.6 mM, HEPES 10 mM (adjusted to pH 7.35 with 1M NaOH). For inhibiting entrance and elimination of fluorescently labeled glucose via a gap junction/hemichannel, 0.1 mM Carbenoxolone (SIGMA #C4790) was added. The HEPES solution for image acquisition was used as a solution for preparing a 2-PBLG solution and as a solution for preparing a 2-PBLG/2-TRLG solution and 2-PBLG/2-NBDLG/2-TRLG solution.
A glass cover slip wherein MIN6 cells had been cultured was transferred into a HEPES solution for image acquisition in a perfusion chamber set on a universal stage (Leica 11600234) on a confocal laser scanning microscope (TCS SP5 available from Leica), and adhered gently and tightly to the glass surface at the bottom of the chamber. […] Further, there is an excellent effect that in the space sandwiched by the metal guides, the perfusion solution flows smoothly as a laminar flow and quick solution exchange is possible.
A perfusion solution feeding system is equipped with one 60 mL cylinder for a control solution and five 10 mL cylinders for agent feeding, which can be switched as needed by a magnetic valve to allow perfusion. In experiments according to the present invention, a 5.6 mM glucose-containing HEPES solution for image acquisition was administered using the 60 mL cylinder and a mixed solution of 2-PBLG/2-NBDLG/2-TRLG, a mixed solution of 2-PBDG/2-TRLG, or a mixed solution of 2-PBLG/2-TRLG was administered using one of the five 10 mL cylinders. As described below, to avoid generation of bubbles in the perfusion chamber, both the solutions were heated beforehand, combined in one tube before being introduced into the perfusion chamber, the flow rate thereof being controlled by a flow rate controller, then, heated again by an inline heater and fed to the perfusion chamber on the confocal microscope.
A laser scan confocal microscope (manufactured by Leica, TCS-SP5 system, microscope body is DMI6000 CS trino electromotive inverted microscope) was used in conventional mode. Regarding laser used, a 405 nm diode laser was used for excitation of 2-PBLG and 2-PBDG, excitation of a mixed solution of 2-PBLG (or 2-PBDG) and 2-TRLG with a single light source, or live staining of nucleus by DAPI. The irradiation intensity was appropriately adjusted in accordance with the fluorescent pigment used so as to obtain sufficient observation intensity by an acoustic optical polarization element (Acoustic Optical Tunable Filter, AOTF). 2-NBDLG and 2-TRLG were excited by 488 nm Argon laser. The scan speed was 200 Hz or 400 Hz.
In fluorescence detection, a photomultiplier detector (PMT) 1 was used for detection of blue fluorescence by 2-PBDG or 2-PBLG and images were acquired in a wavelength detection range set at 415-580 nm in the case of detection of bicolor of 2-PBLG/2-TRLG and in a wavelength detection range set at 415-500 nm in the case of detection of tricolor of 2-PBLG/2-NBDLG/2-TRLG. For detection of green fluorescence by 2-NBDLG, PMT2 (called green channel, the same shall apply hereinafter) was used in a wavelength detection range of 500-580 nm. For detection of red fluorescence by 2-TRLG, PMT3 (called red channel, the same shall apply hereinafter) was used in a wavelength detection range of 580-740 nm. […]

[2] = tested on: neurons acutely dissociated from mouse midbrain substantia nigra pars reticulata; assay: Application of fluorescent sugar derivatives to acutely dissociated normal neurons (confocal imaging of uptake); conditions: for increase in fluorescence intensity in the neuron before and after administration: 3 minutes, comparative compounds
Description: This was conducted according to a method described in WO 2010/16587.
Living neurons were acutely dissociated from mouse midbrain substantia nigra pars reticulata, and to which a mixed solution containing 100 μM of 2-PBDG and 20 μM of 2-TRLG was administered at 37° C. for 5 minutes. FIGS. 1A to C represent confocal microscopic images taken immediately before this. A is a fluorescence image in blue wavelength region (Blue channel, wavelength range: 415-580 nm). The position of cells is recognized by autofluorescence. The fluorescence signal intensity is represented by pseudocolor. B is a fluorescence image in red wavelength region (Red channel, 580-740 nm). A and B were obtained both by simultaneous excitation using 405 nm Blue diode laser at an intensity of 60%, wherein photomultipliers (PMT) 1 and 2 were used respectively, and the detection sensitivity of PMT2 was raised higher than PMT1 so that the presence or absence of invasion of 2-TRLG can be detected in a sensitive manner. C is a view in which the bright field image is overlaid on the fluorescence images of A and B.
An experiment was conducted in the same manner as in Example 2.
FIGS. 2A to C represent confocal microscopic images immediately before administration of a mixed solution containing 100 μM of 2-PBLG and 20 μM of 2-TRLG at 37° C. to acutely dissociated neurons of mouse midbrain substantia nigra pars reticulata for 5 minutes.
FIG. 3 represents confocal microscopic images before and after administration of a mixed solution containing 100 μM of 2-HCDG and 20 μM of 2-TRLG at 37° C. for 3 minutes to neurons acutely dissociated from mouse midbrain substantia nigra pars reticulata. A and B are fluorescence images acquired before administration in Blue channel (415-580 nm) and Red channel (580-740 nm), respectively. The excitation wavelength is 405 nm. C is an image of differential interference (Differential Interference contrast, DIC). D is an overlay of the above-described images. E to H are the same as A to D, excepting that E to H are images acquired 4 minutes after initiation of washout of the fluorescence tracer solution after administration of the 2-HCDG+2-TRLG fluorescence tracer solution at 37° C. for 3 minutes. […] Since invasion of 2-TRLG into a cell is not observed, the plasma membrane of the neuron is thought to be maintained intactly.
Since the optimal excitation wavelength was as very low as 320 nm in this experiment, an image was acquired by Retiga-2000R CCD camera manufactured by Q-imaging via a custom-order filter constituted of an excitation filter (320 nm) (half width: 40 nm), a fluorescence filter (435 nm) (half width: 40 nm) and a dichroic mirror (409 nm), by a xenon lamp, using Nikon Ti-E real time deconvolution microscope.

[3] = tested on: mouse insulinoma cells (MIN6); assay: Uptake into MIN6 cells and influence of glucose transport inhibitors (fluorescent microplate reader)
Description: Cryopreserved MIN6 cells (cells donated from Professor Miyazaki Junichi of Osaka University and cultured 5 to 8 passages) were subjected to culture according to an ordinary method, and cultures at 7 to 9 passages were used in experiments.
NaCl 129.0 mM, KCl 4.75 mM, KH2 PO4 1.19 mM, MgSO4.7H2O 1.19 mM, CaCl2.2H2O 1.0 mM, NaHCO3 5.02 mM, D-Glucose 5.6 mM, HEPES 10 mM (pH was adjusted to 7.35 with 1M NaOH). For inhibiting entrance and elimination of a fluorescently labeled glucose via gap junction/hemichannel, 0.1 mM Carbenoxolone (SIGMA #C4790) was added. This KRB solution was used as a solution for preparing a 2-PBLG solution.
2-PBDG and 2-PBLG were charged into wells at the third column and the fifth column, respectively, using a 8-channel pipette. Before administration, the autofluorescence of each well was measured beforehand by a fluorescent micro plate reader (Flex Station, manufactured by Molecular Device). The measurement conditions include Bottom Read, Ex 401 nm, Em 453 nm, Cut off 420 nm, Averaging 3, and high sensitivity of Photomultiplier. In the measurement method, Well Scan Mode was used. In Well Scan Mode, the inside of one well was divided into 9 regions of interest (diameter: 1.5 mm) and measurement was performed each independently.
Next, in wells (3C, 3E, 3G) for measuring the effect of a glucose transport inhibitor phloretin, phloretin (final 150 μM) was administered beforehand from 5 minutes prior to administration of 2-PBDG, while KRB was added to other wells (3B, 3D, 3F). Similar operation was also conducted on the fifth column where 2-PBLG was to be administered. 2-PBDG and 2-PBLG were administrated at 37° C. for 10 minutes.
After completion of administration, a diluting operation of the fluorescence solution in the well using 300 μL of a KRB solution was repeated set times each for 30 seconds. The repetition time was determined so that the fluorescence intensity detected by wells of A-th row and H-th row set as a control group was equivalent to the fluorescence intensity of a blank well containing no cell, and complete washout was confirmed in every experiment. In the case of 2-PBDG and 2-PBLG, this washout process needed 8 minutes, thus, measurement of fluorescence after administration was carried out 9 minutes after.
According to this method, even if cells having undergone a loss of the plasma membrane contacted 2-PBDG and 2-PBLG and once took up these compounds into themselves, it is judged that contribution of the increase in the fluorescence intensity to the whole observation area was ignorable level since these compounds had already been washed out of the cells when performing the measurement. This was supported by a pharmacological inhibition experiment separately in which the increase in the fluorescence intensity almost completely disappeared in the presence of an inhibitor. The above-described method was conducted in the same manner also when other inhibitor, for example, cytochalasin B (10 μM) was added.
The change of fluorescence intensity by administration of a D-glucose derivative (2-PBDG), an L-glucose derivative (2-PBLG) and PB—NH2 prepared by amidating Pacific Blue (PB) chromophore group to MIN6 cells on day of 10 of culture and the effect by a glucose transport inhibitor were confirmed in the same manner as in Example 4. PB—NH2 has the following structure (Ex max. 402 nm, Em max. 451 nm).
An experiment was conducted in the same manner as in Example 4.
The experiment was carried out 3 times independently, and the same results were obtained in all cases. In the experiment of administration of 2-PBDM, excitation occurred at a maximum excitation light wavelength of 404 nm and fluorescence was acquired at a maximum emission wavelength of 453 nm.

[4] = 100 μM with 20 μM 2-TRLG, 37° C.
[5] = 100 μM derivative, phloretin 150 μM, MIN6 day 10

## 2-TexasRed-2-amino-2-deoxy-L-glucose [2-TRLG]
[1]; mixed solution 100 μM 2-PBLG and 20 μM 2-TRLG, administered 5 minutes
  fluorescence of cells in the cell cluster 2 minutes after initiation of washout: invades into the cell having increased membrane permeability mainly present at the center of a cell cluster
[1]
  fluorescence of cells in the cancer cell cluster 8 minutes after completion of administration: very weak red fluorescence
[2]; 20 μM 2-TRLG co-administered with 100 μM blue derivative, 37° C.
  fluorescence intensity in Red channel / invasion of 2-TRLG into a cell: did not increase; also recorded: scarcely increased; also recorded: not observed

## O=C(NC1C(O)OC(CO)[C@@H](O)C1O)c1cc2ccc(O)cc2oc1=O (stereo partly drawn) [2-HCDG, 2-Deoxy-2-((7-hydroxycoumarin-3-yl)carboxamido)-D-glucose]
[2]; [4]
  increase in fluorescence intensity in the neuron before and after administration: no increase in the fluorescence intensity is detected

## COc1ccc2c(CC(=O)N[C@@H](C=O)[C@@H](O)[C@H](O)[C@H](O)CO)cc(=O)oc2c1 [2-MCDG, 2-Deoxy-2-(2-(7-methoxycoumarin-4-yl)acetamido)-D-glucose]
[2]; [4]
  increase in fluorescence intensity in the neuron before and after administration: not recognized

## O=[N+]([O-])c1ccc(NC2C(O)OC(CO)[C@H](O)C2O)c2nonc12 (stereo partly drawn) [2-NBDLG, 2-[N-(7-nitrobenz-2-oxa-1,3-diazol-4-yl)amino]-2-deoxy-L-glucose, reference compound]
[1]
  fluorescence of cells in the cancer cell cluster 8 minutes after completion of administration: difficult to specify these cells only by the fluorescence imaging by 2-NBDLG

## O=C(NC1C(O)OC(CO)[C@@H](O)C1O)c1cc2cc(F)c(O)c(F)c2oc1=O (stereo partly drawn) [2-PBDG, 2-Deoxy-2-((6,8-difluoro-7-hydroxycoumarin-3-yl)carboxamido)-D-glucose]
[2]; 100 μM with 20 μM 2-TRLG, 37° C., 5 minutes, image 4 minutes after initiation of washout
  intracellular fluorescence intensity in Blue channel as compared with that before administration: increased excepting nucleus
[2]; images 8 and 20 minutes after initiation of washout
  persistence of intracellular blue fluorescence after washout: not easily diminished
[3]; 100 μM derivative, 150 μM phloretin, MIN6 day 10, increase without phloretin as reference
  decreased value of fluorescence intensity owing to phloretin (average): 22.4%
[3]; 100 μM derivative, cytochalasin B 10 μM, MIN6 day 10
  effect of cytochalasin B on increase in fluorescence intensity: did not show a significant inhibitory effect
[3]; 100 μM, MIN6 on day 10 of culture, Ex 401 nm, Em 453 nm
  fluorescence intensity after administration as compared with that before administration: increases significantly

## O=C(NC1C(O)OC(CO)[C@@H](O)C1O)c1cc2cc(F)c(O)c(F)c2oc1=O (stereo partly drawn) [2-PBDM, 2-Deoxy-2-((6,8-difluoro-7-hydroxycoumarin-3-yl)carboxamido)-D-mannose]
[3]; [5]
  effect of phloretin on increase in fluorescence intensity (in words): slight but significant inhibitory effect

## NC(=O)c1cc2cc(F)c(O)c(F)c2oc1=O [PB—NH2, reference compound]
[3]; [5]
  effect of phloretin on increase in fluorescence intensity (in words): remarkably promoted
[3]; 100 μM, phloretin 150 μM, n=3 experiments
  increase in the fluorescence with phloretin compared to when only PB—NH2 is administrated: 384.1±24.2%
[3]; 100 μM, same culture plate, MIN6 day 10
  increase in fluorescence intensity compared with that of 2-PBLG: significantly larger
